Assay results published in the supplement of paper PMC10307832.

Experiments:
Experiment in all cases: relative viability (nuclei count vs DMSO), 5 days (fraction); higher = more cells survive
EMC-BAC-2 = system: EMC-BAC-2
Summary of the method: (§1)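 Relative viability was taken as the ratio of nuclei in treated wells to nuclei in vehicle wells. Lung cancer cell lines in 1536-well plates received compounds by pin tool one day after seeding, either one drug alone or a fixed anchor-drug dose plus five library-drug doses (not always all listed) in √10 steps. Nuclei were counted on 4× images after 5 days of treatment, and values are medians of duplicate plates.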

NCI-H2085 = system: NCI-H2085
Summary of the method: as §1

NCI-H2023 = system: NCI-H2023
Summary of the method: as §1

UMC-11 = system: UMC-11
Summary of the method: as §1

CAL-12T = system: CAL-12T
Summary of the method: as §1

NCI-H1993 = system: NCI-H1993
Summary of the method: as §1

HCC-15 = system: HCC-15
Summary of the method: as §1

NCI-H3122 = system: NCI-H3122
Summary of the method: as §1

EPLC-272H = system: EPLC-272H
Summary of the method: as §1

NCI-H2126 = system: NCI-H2126
Summary of the method: as §1

COR-L 105 = system: COR-L 105
Summary of the method: as §1

NCI-H358 = system: NCI-H358
Summary of the method: as §1

HOP-62 = system: HOP-62
Summary of the method: as §1

NCI-H1666 = system: NCI-H1666
Summary of the method: as §1

NCI-H1975 = system: NCI-H1975
Summary of the method: as §1

LXF-289 = system: LXF-289
Summary of the method: as §1

HCC-78 = system: HCC-78
Summary of the method: as §1

NCI-H441 = system: NCI-H441
Summary of the method: as §1

NCI-H322M = system: NCI-H322M
Summary of the method: as §1

NCI-H1915 = system: NCI-H1915
Summary of the method: as §1

ChaGo-K-1 = system: ChaGo-K-1
Summary of the method: as §1

NCI-H1755 = system: NCI-H1755
Summary of the method: as §1

## NC(=O)Nc1cc(-c2cccc(F)c2)sc1C(=O)N[C@H]1CCCNC1 [AZD7762] + CC(=O)Nc1cccc(-n2c(=O)n(C3CC3)c(=O)c3c(Nc4ccc(I)cc4F)n(C)c(=O)c(C)c32)c1 [Trametinib] (partner 0.02 µM)
EMC-BAC-2; first compound 0.01 µM
  relative viability: 1.02
EMC-BAC-2; first compound 0.03162 µM
  relative viability: 0.84
EMC-BAC-2; first compound 0.1 µM
  relative viability: 0.921
EMC-BAC-2; first compound 0.3162 µM
  relative viability: 0.973
EMC-BAC-2; first compound 1 µM
  relative viability: 0.839
NCI-H2085; first compound 0.01 µM
  relative viability: 0.514
NCI-H2085; first compound 0.03162 µM
  relative viability: 0.559
NCI-H2085; first compound 0.1 µM
  relative viability: 0.632
NCI-H2085; first compound 0.3162 µM
  relative viability: 0.713
NCI-H2085; first compound 1 µM
  relative viability: 0.357
NCI-H2023; first compound 0.01 µM
  relative viability: 0.596
NCI-H2023; first compound 0.03162 µM
  relative viability: 0.46
NCI-H2023; first compound 0.1 µM
  relative viability: 0.293
NCI-H2023; first compound 0.3162 µM
  relative viability: 0.156
NCI-H2023; first compound 1 µM
  relative viability: 0.132
UMC-11; first compound 0.01 µM
  relative viability: 0.678
UMC-11; first compound 0.03162 µM
  relative viability: 0.696
UMC-11; first compound 0.1 µM
  relative viability: 0.656
UMC-11; first compound 0.3162 µM
  relative viability: 0.665
UMC-11; first compound 1 µM
  relative viability: 0.33
CAL-12T; first compound 0.01 µM
  relative viability: 0.391
CAL-12T; first compound 0.03162 µM
  relative viability: 0.402
CAL-12T; first compound 0.1 µM
  relative viability: 0.377
CAL-12T; first compound 0.3162 µM
  relative viability: 0.325
CAL-12T; first compound 1 µM
  relative viability: 0.217
NCI-H1993; first compound 0.01 µM
  relative viability: 0.458
NCI-H1993; first compound 0.03162 µM
  relative viability: 0.482
NCI-H1993; first compound 0.1 µM
  relative viability: 0.605
NCI-H1993; first compound 0.3162 µM
  relative viability: 0.674
NCI-H1993; first compound 1 µM
  relative viability: 0.536
HCC-15; first compound 0.01 µM
  relative viability: 0.407
HCC-15; first compound 0.03162 µM
  relative viability: 0.393
HCC-15; first compound 0.1 µM
  relative viability: 0.413
HCC-15; first compound 0.3162 µM
  relative viability: 0.351
HCC-15; first compound 1 µM
  relative viability: 0.443
NCI-H3122; first compound 0.01 µM
  relative viability: 0.22
NCI-H3122; first compound 0.03162 µM
  relative viability: 0.231
NCI-H3122; first compound 0.1 µM
  relative viability: 0.223
NCI-H3122; first compound 0.3162 µM
  relative viability: 0.243
NCI-H3122; first compound 1 µM
  relative viability: 0.27
EPLC-272H; first compound 0.01 µM
  relative viability: 0.28
EPLC-272H; first compound 0.03162 µM
  relative viability: 0.297
EPLC-272H; first compound 0.1 µM
  relative viability: 0.277
EPLC-272H; first compound 0.3162 µM
  relative viability: 0.293
EPLC-272H; first compound 1 µM
  relative viability: 0.227
NCI-H2126; first compound 0.01 µM
  relative viability: 0.547
NCI-H2126; first compound 0.03162 µM
  relative viability: 0.629
NCI-H2126; first compound 0.1 µM
  relative viability: 0.529
NCI-H2126; first compound 0.3162 µM
  relative viability: 0.639
NCI-H2126; first compound 1 µM
  relative viability: 0.675
COR-L 105; first compound 0.01 µM
  relative viability: 0.435
COR-L 105; first compound 0.03162 µM
  relative viability: 0.462
COR-L 105; first compound 0.1 µM
  relative viability: 0.416
COR-L 105; first compound 0.3162 µM
  relative viability: 0.444
COR-L 105; first compound 1 µM
  relative viability: 0.43
NCI-H358; first compound 0.01 µM
  relative viability: 0.136
NCI-H358; first compound 0.03162 µM
  relative viability: 0.135
NCI-H358; first compound 0.1 µM
  relative viability: 0.148
NCI-H358; first compound 0.3162 µM
  relative viability: 0.145
NCI-H358; first compound 1 µM
  relative viability: 0.1
HOP-62; first compound 0.01 µM
  relative viability: 0.363
HOP-62; first compound 0.03162 µM
  relative viability: 0.367
HOP-62; first compound 0.1 µM
  relative viability: 0.407
HOP-62; first compound 0.3162 µM
  relative viability: 0.37
HOP-62; first compound 1 µM
  relative viability: 0.343
NCI-H1666; first compound 0.01 µM
  relative viability: 0.894
NCI-H1666; first compound 0.03162 µM
  relative viability: 0.898
NCI-H1666; first compound 0.1 µM
  relative viability: 0.927
NCI-H1666; first compound 0.3162 µM
  relative viability: 0.891
NCI-H1666; first compound 1 µM
  relative viability: 0.901
NCI-H1975; first compound 0.01 µM
  relative viability: 0.341
NCI-H1975; first compound 0.03162 µM
  relative viability: 0.377
NCI-H1975; first compound 0.1 µM
  relative viability: 0.331
NCI-H1975; first compound 0.3162 µM
  relative viability: 0.345
NCI-H1975; first compound 1 µM
  relative viability: 0.24
LXF-289; first compound 0.01 µM
  relative viability: 0.618
LXF-289; first compound 0.03162 µM
  relative viability: 0.699
LXF-289; first compound 0.1 µM
  relative viability: 0.692
LXF-289; first compound 0.3162 µM
  relative viability: 0.458
LXF-289; first compound 1 µM
  relative viability: 0.68
HCC-78; first compound 0.01 µM
  relative viability: 0.937
HCC-78; first compound 0.03162 µM
  relative viability: 0.864
HCC-78; first compound 0.1 µM
  relative viability: 0.828
HCC-78; first compound 0.3162 µM
  relative viability: 0.969
HCC-78; first compound 1 µM
  relative viability: 0.416
NCI-H441; first compound 0.01 µM
  relative viability: 0.511
NCI-H441; first compound 0.03162 µM
  relative viability: 0.574
NCI-H441; first compound 0.1 µM
  relative viability: 0.543
NCI-H441; first compound 0.3162 µM
  relative viability: 0.517
NCI-H441; first compound 1 µM
  relative viability: 0.359
NCI-H322M; first compound 0.01 µM
  relative viability: 0.548
NCI-H322M; first compound 0.03162 µM
  relative viability: 0.583
NCI-H322M; first compound 0.1 µM
  relative viability: 0.526
NCI-H322M; first compound 0.3162 µM
  relative viability: 0.58
NCI-H322M; first compound 1 µM
  relative viability: 0.369
NCI-H1915; first compound 0.01 µM
  relative viability: 0.342
NCI-H1915; first compound 0.03162 µM
  relative viability: 0.332
NCI-H1915; first compound 0.1 µM
  relative viability: 0.305
NCI-H1915; first compound 0.3162 µM
  relative viability: 0.362
NCI-H1915; first compound 1 µM
  relative viability: 0.271
ChaGo-K-1; first compound 0.01 µM
  relative viability: 0.871
ChaGo-K-1; first compound 0.03162 µM
  relative viability: 0.914
ChaGo-K-1; first compound 0.1 µM
  relative viability: 0.93
ChaGo-K-1; first compound 0.3162 µM
  relative viability: 0.9
ChaGo-K-1; first compound 1 µM
  relative viability: 0.958
NCI-H1755; first compound 0.01 µM
  relative viability: 0.788
NCI-H1755; first compound 0.03162 µM
  relative viability: 0.823
NCI-H1755; first compound 0.1 µM
  relative viability: 0.76
NCI-H1755; first compound 0.3162 µM
  relative viability: 0.694
NCI-H1755; first compound 1 µM
  relative viability: 0.635
